Measurements as given in PMC9000575, “Solution Equilibrium Studies on Salicylidene Aminoguanidine Schiff Base Metal Complexes: Impact of the Hybridization with L-Proline on Stability, Redox Activity and Cytotoxicity” (Molecules, 2022).
Where two headings read alike, the source gives them in different places.

Key:
[1] = test system: Colo-320 (doxorubicin-resistant) human colon adenocarcinoma cells; assay: MTT cytotoxicity test; type: cell-based; conditions: Colo-320, 72 h
Protocol: (§1) All cell culture reagents were obtained from Sigma-Aldrich and plastic ware from Sarstedt (Nümbrecht, Germany). Human colon Colo-205 (chemo-sensitive) and Colo-320 (doxorubicin-resistant) adenocarcinoma and MRC-5 human embryonal lung fibroblast cell lines were purchased from LGC Promochem, Teddington, UK. The colon adenocarcinoma cells were cultured in Roswell Park Memorial Institute (RPMI) 1640 medium supplemented with 10% heat-inactivated fetal bovine serum, 2 mM L-glutamine, 1 mM sodium pyruvate and 100 mM HEPES. The MRC-5 cell line was cultured in Eagle’s Minimal Essential Medium (EMEM, Sigma-Aldrich, St. Louis, MO, USA) supplemented with a non-essential amino acid (NEAA) mixture (Sigma-Aldrich, St. Louis, MO, USA) a selection of vitamins, 10% heat-inactivated foetal bovine serum (FBS), 2 mM L-glutamine (Sigma-Aldrich, St. Louis, MO, USA), 1 mM Na-pyruvate (Sigma-Aldrich, St. Louis, MO, USA), nystatin (Sigma-Aldrich, St. Louis, MO, USA) and a penicillin-streptomycin mixture (Sigma-Aldrich, St. Louis, MO, USA) in concentrations of 100 U/L and 10 mg/L, respectively. The cells were incubated at 37 °C, in a 5% CO2, 95% air atmosphere. All cell lines were detached with Trypsin-Versene® (EDTA) solution for 5 min at 37 °C.
(§2) The tested compounds were dissolved in 90% (v/v) DMSO/H2O using 8 mM concentration, […] in the final samples the DMSO content was always lower than 1%. Then stock solutions were diluted in complete culture medium, and two-fold serial dilutions of compounds were prepared in 100 μL of the medium, horizontally. The semi-adherent colon adenocarcinoma cells were treated with Trypsin-Versene (EDTA) solution. They were adjusted to a density of 1 × 10^4 cells in 100 μL of RPMI 1640 or EMEM medium and were added to each well, with the exception of the medium control wells. The final volume of the wells containing compounds and cells was 200 μL. The plates containing Colo-205, Colo-320 or MRC-5 cells were incubated at 37 °C for 72 h; at the end of the incubation period, 20 μL of MTT solution (from a stock solution of 5 mg/mL) were added to each well. After incubation at 37 °C for 4 h, 100 μL of SDS solution (10% in 0.01 M HCI) were added to each well, and the plates were further incubated at 37 °C overnight. Cell growth was determined by measuring the optical density (OD) at 540/630 nm with a Multiskan EX plate reader (Thermo Labsystems, Cheshire, WA, USA). Inhibition of the cell growth (expressed as IC50: inhibitory concentration that reduces by 50% the growth of the cells exposed to the tested compounds) was determined from the sigmoid curve where 100 − ((ODsample − ODmedium control)/(ODcell control − ODmedium control)) × 100 values were plotted against the logarithm of compound concentrations. Curves were fitted by GraphPad Prism software (2021, Graphpad Software, San Diego, CA, USA) using the sigmoidal dose–response model (comparing variable and fixed slopes). The IC50 values were obtained from at least three independent experiments.

[2] = test system: Colo-205 human colon adenocarcinoma cells; assay: MTT cytotoxicity test; type: cell-based; conditions: Colo-205, 72 h
Protocol: as §1, §2

[3] = test system: MRC-5 human embryonal lung fibroblast cells; assay: MTT cytotoxicity test; type: cell-based; conditions: MRC-5, 72 h
Protocol: as §1, §2

[4] = literature pKa values of analogous (thio)semicarbazones; type: physicochemical; conditions: from literature pKa values (refs 22, 23)
[5] = pH 7.4; cited from earlier work
[6] = 30% (v/v) DMSO/H2O; cited from earlier work
[7] = test system: Colo-320 (doxorubicin-resistant) human colon adenocarcinoma cells; set-up: method as in PMID 35287037; conditions: Colo-320, 72 h; cited from earlier work
[8] = test system: MRC-5 human embryonal lung fibroblast cells; set-up: method as in PMID 35287037; conditions: MRC-5, 72 h; cited from earlier work
[9] = cited from earlier work
[10] = stability constants of Fe(II) complexes by pH-potentiometry; type: physicochemical; conditions: calculated at pH 7.4, cFe = 1 μM, cligand = 10 μM, from overall stability constants reported in Refs. 22, 27, 34
[11] = stability constants of Fe(III) complexes by pH-potentiometry; type: physicochemical; conditions: calculated at pH 7.4, cFe = 1 μM, cligand = 10 μM, from overall stability constants reported in Refs. 22, 27, 34
[12] = test system: Colo-205 human colon adenocarcinoma cells; set-up: method as in PMID 35287037; conditions: Colo-205, 72 h; cited from earlier work

`[Cl][Cu][Cl]` [CuCl2, reference compound] showed an IC50 [1] of 48.7 ± 0.4 µM, an IC50 [2] of 44.1 ± 0.4 µM and an IC50 [3] of 43.9 ± 0.3 µM.

For `NC(=O)N/N=C/c1ccccc1O` [SSC, salicylaldehyde semicarbazone], the “fraction present in neutral form at pH 7.4” value [4] is listed as 100%, the logD7.4 [5] is listed as “+0.94” and the pK1 [6] is listed as 9.32. The pK2 [6] was over 12.8.

In the case of `NC(=S)N/N=C/c1ccccc1O` [STSC, salicylaldehyde TSC], the IC50 [7] is listed as 52.2 ± 6.8 µM, the IC50 [8] is listed as 88 ± 19 µM and the “fraction present in neutral form at pH 7.4” value [4] is listed as 97%. The logD7.4 [5] was “+1.59”, the “E1/2 of the Fe(III)/Fe(II) redox couple of the iron complexes” value ([9]; STSC complexes, 'as it was found', no reference given) was −0.14 V vs. NHE and the pK1 [6] was 8.89. For the same compound, the pK2 [6] was 12.59, the “pFe(II) (−log[Fe(II)])” value [10] was 8.3 and the “pFe(III)* (−logΣ[Fe(III)i(OH)j])” value [11] was 8.4. The IC50 [12] was 69.7 ± 1.9 µM.

In the case of `NC(=S)NN=Cc1ncccc1N` [Triapine, 3-aminopyridine-2-carbaldehyde thiosemicarbazone], the IC50 [7] is given as 2.17 ± 0.15 µM, the IC50 [8] is given as 31.4 ± 9.2 µM and the “E1/2 of the Fe(III)/Fe(II) redox couple of the iron complexes” value [9] is given as “+0.08 V vs. NHE”. For the same compound, the “pFe(II) (−log[Fe(II)])” value [10] was 11.6, the “pFe(III)* (−logΣ[Fe(III)i(OH)j])” value [11] was 7.3 and the IC50 [12] was 3.28 ± 0.63 µM.
